Experimental data as given in patent US4156427A, “Injectable male animal sterilant for selectively controlling the function of testes” (priority 1977, dated 1979).
Read-outs that look alike come from different tables or passages of the source.

Tests used:
[1] = system: human spermatozoa; details: cited from earlier work
[2] = system: litter mate dogs, 8 weeks old; assay: Example 13: injection into testes of 8 weeks old litter mate dogs; details: Group II, 20.0 mg tannic acid buffered to pH 6.5 into each testis
Procedure: Thirty-eight litter mate dogs, 8 weeks old, were divided into four groups. The dogs in Group I were a control and were injected with 0.2 ml of water into each testis. The animals in Group II were similarly treated in each testis with 20.0 mg of tannic acid buffered to a pH of 6.5. Those in Group III were treated with 20 mg of ZnSO4.7H2 O and those in Group IV with a mixture of 10 mg of tannic acid and 10 mg of ZnSO4.7H2 O.

[3] = system: purebred Angus bulls; assay: Example 17: injection into testes of Angus bulls, rate of gain and carcass quality; format: in vivo, cattle; details: for BODY WEIGHT Final: after one year; for BODY WEIGHT Final / % Fat / % Protein / Rate of Gain: III 500.0 mg tannic acid, IV 500.0 mg ZnSO4.7H2 O, V 250.0 mg + 250.0 mg; for % Fat / % Protein / Rate of Gain / rate of gain vs surgically castrated animals: one year; for Rate of Gain: surgically castrated 1.29; for rate of gain vs surgically castrated animals: vs Group II surgically castrated
Procedure: Ten purebred Angus bulls weighing an average of 400 pounds were divided into five groups, Group I being a control. Each animal in Group I was injected with 5.0 ml of water in each testis. Those in Group II were surgically castrated. The animals in Group III were injected with 500.0 mg of tannic acid, those in Group IV with 500.0 mg of ZnSO4.7H2 O and those in Group V with 250.0 mg of tannic acid and 250.0 mg of ZnSO4.7H2 O.
The animals were fed concentrate and grazed. After one year, they were sacrificed.

[4] = system: sexually mature cats; assay: Example 16: injection into testes of sexually mature cats; format: in vivo, cat
Procedure: Those animals in Group I were injected in each testis with 0.1 ml of water.
The testosterone level for the cats in Group I was 6.8±0.2 ng/ml, for those in Group II 4.1±0.3 ng/ml and less than 1 ng/ml for those in Group III.

[5] = system: weaned male rats; assay: Example 12: injection into testes of weaned 30-day old rats; details: 60 days, per testis: II 5.0 mg ZnSO4.7H2 O, III 5.0 mg tannic acid, IV 2.5 mg + 2.5 mg
Procedure: Two hundred 30-day old male rats, just weaned, were divided into four groups, Group I being a control. The rats in Group I were injected with 0.05 ml of water into each testis. The rats in Group II were similarly injected with 5.0 mg of ZnSO4.7H2 O, those in Group III with 5.0 mg of tannic acid and those in Group IV with a mixture (Kastrin) containing 2.5 mg tannic acid and 2.5 mg ZnSO4.7H2 O.
Forty of the animals were sacrificed 60 days after treatment. The others were watched for a year.

[6] = system: male reproduction of sexually mature rats; details: rat
[7] = system: spermatogenesis / testis; assay: General findings: arrest of spermatogenesis and diffusion of zinc after injection into testis; format: in vivo; details: astringent zinc sulfate, injected in testis
Procedure: Recommended dosages, as above mentioned, depend upon the size and species of the animal and upon the desired result. Recommended dosages for sterilization of adult dogs weighing less than 10 kg is 0.25 ml into each testis of a mixture containing between 10.0 and 25.0 mg of tannic acid and 25.0 mg of ZnSO4.7H2 O. For dogs weighing between 10 and 15 kg, the recommended dose is 0.5 ml into each testis of a mixture containing between 10.0 and 50.0 mg of tannic acid and 50.0 mg of ZnSO4.7H2O. For those dogs weighing between 16 and 20 kg, the recommended dose is 1.0 ml into each testis of a mixture containing between 50.0 and 100.0 mg of tannic acid and between 75.0 and 100.0 mg of ZnSO4.7H2 O. For dogs weighing over 20 kg, the recommended dose is 1.0 ml in each testis of a mixture containing between 50.0 and 125.0 mg of tannic acid and 125.0 mg of ZnSO4.7H2 O.
In the case of puppies between 6 and 8 weeks of age, the recommended dose is 0.05 ml into each testis of a mixture containing 2.0 mg of tannic acid and 5.0 mg of ZnSO4.7H2 O. For puppies over 8 weeks but not sexually mature, the dose is preferably 0.08 ml into each of the testes of a mixture containing 7.0 mg of tannic acid and 7.0 mg of ZnSO4.7H2 O. For adult cats, the recommended dose is 0.1 ml into each testis of a mixture containing 10.0 mg of tannic acid and 10.0 mg of ZnSO4.7H2 O. […]

[8] = system: male reproduction of sexually mature rats; details: rat; for Testosterone ng/ml serum / Epididymis weight / Prostate weight / Seminal Vesicles weight / Testes weight: i.p.; for Epididymis weight / Prostate weight / Seminal Vesicles weight / Testes weight: sacrificed at 60 days
Procedure: This example illustrates the effect of zinc sulfate on male reproduction of sexually mature rats when administered intraperitoneally.
Four hundred sexually mature rats were divided into four groups, Group I being a control. The rats in Groups II, III and IV were treated daily for 30 days, respectively, with 0.5, 1.0 and 5.0 mg ZnSO4.7H2 O. At the end of 60 days, as in Example 1, the rats were sacrificed.
ZnSO4 solution was made up from ZnSO4 . 7H2 O salt.
Therefore 0.5 mg, 1.0 mg and 5.0 mg ZnSO4 . 7H2 O correspond to
0.28 mg, 0.56 mg and 2.81 mg ZnSO4 respectively.

[9] = system: male reproduction of sexually mature rats
Procedure: This example illustrates the effect of zinc sulfate on male reproduction of sexually mature rats when administered in the vas diferens.
Eighty sexually mature male rats were divided into four groups, Group I being a control. The rats in Groups II, III and IV were treated by injecting 0.5, 2.5 and 5.0 mg ZnSO4.7H2 O into the vas diferens.
At the end of 60 days, as in the other examples, the rats were sacrificed.

[10] = system: male reproduction of sexually mature rats; assay: Example 5: zinc sulfate injected into the testes of sexually mature rats; format: in vivo; details: rat, 0.5, 2.5 and 5.0 mg into the testes
Excerpt: Such injection was made into the midline of each testis with a sterilized needle.

[11] = system: male reproduction in sexually mature rats; details: rat
Procedure: One hundred sexually mature rats were divided into two groups, Group I being a control. Each of the Group II rats was injected with 25 mg ZnSO4.7H2 O into each side of the scrotum.
*Animals were sacrificed 60 days after

[12] = oral, 15 mg ZnSO4.7H2 O daily 30 days
[13] = oral, 50 mg ZnSO4.7H2 O daily 30 days
[14] = oral, 15.0 and 50.0 mg daily 30 days
[15] = 0.5 mg ZnSO4.7H2 O daily 30 days
[16] = 1.0 mg ZnSO4.7H2 O daily 30 days
[17] = 5.0 mg ZnSO4.7H2 O daily 30 days
[18] = i.p., 0.5, 1.0 and 5.0 mg daily 30 days
[19] = rat, 0.5, 2.5 and 5.0 mg into the vas deferens, 60 days
[20] = 25 mg ZnSO4.7H2 O into each scrotum, 60 days after
[21] = 25 mg ZnSO4.7H2 O into each scrotum, 60 days after, p<0.001 vs control
[22] = 25 mg into each side of the scrotum
[23] = 25 mg into each side of the scrotum, FIGS. 1 and 2

In the case of [Zn] [zinc], the “toxic effects on human spermatozoa” value ([1]; under certain conditions) is given as “can exert toxic effects on human spermatozoa”, the sperm motility ([1]; zinc 5 μg/ml (0.075 mM), without albumin) is given as “markedly inhibited sperm motility” and the sperm motility ([1]; zinc 50 μg/ml (0.75 mM), with 4% albumin) is given as “only slightly inhibited sperm motility”.

For tannic acid, the muscular appearance [2] was “better muscular appearance than those in the control group”, the “BODY WEIGHT Final” value [3] was 826 and the “% Fat” value [3] was 18.0%. The “% Protein” value [3] was 18.3%, the “Rate of Gain” value [3] was 1.40 lbs/day and the “rate of gain vs surgically castrated animals” value [3] was “faster rate of gain than the surgically castrated animals”. The sperm count ([4]; cats, one week, per testis II 10.0 mg tannic acid pH 6.8, III 5.0 mg tannic acid + 5.0 mg ZnSO4.7H2 O, control 230×10^6 /ml) was “zero”, the “behaviour / male aggressiveness” value ([4]; cats, II 10.0 mg tannic acid, III 5.0 mg + 5.0 mg per testis) was “acted normally” and the testosterone level ([4]; cats, II 10.0 mg tannic acid, III 5.0 mg + 5.0 mg per testis, control 6.8±0.2 ng/ml) was 4.1 ± 0.3 ng/mL. For the same molecule, the weight gain ([4]; in vivo) was “None of the animals in Groups II or III gained any more weight than those in Group I”, the “Epididymis weight” value [5] was 0.31 ± 0.07 gm and the “Prostate weight” value [5] was 0.10 ± 0.05 gm. The “Seminal Vesicles Wt.” value [5] was 0.14 ± 0.04 gm and the “Testes weight” value [5] was 0.46 ± 0.12 gm.

In the case of O=S(=O)([O-])[O-].[Zn+2] [zinc sulfate], the Epididymis weight [6, 12] is reported as 0.94 ± 0.03 gm, the Prostate weight [6, 12] is reported as 0.44 ± 0.03 gm and the “Seminal Vesicles weight” value [6, 12] is reported as 0.73 ± 0.04 gm. It also gave a Testes weight [6, 12] of 2.88 ± 0.17 gm, a Testosterone ng/ml serum [6, 12] of 6.25 ± 1.68 ng/mL and an Epididymis weight [6, 13] of 0.91 ± 0.04 gm. The Prostate weight [6, 13] was 0.42 ± 0.02 gm, the “Seminal Vesicles weight” value [6, 13] was 0.78 ± 0.04 gm and the Testes weight [6, 13] was 2.94 ± 0.13 gm. The Testosterone ng/ml serum [6, 13] was 6.57 ± 0.58 ng/mL, the “histological changes in the male reproductive organs” value [6, 14] was “No histological changes were observed” and the testosterone levels [6, 14] was “no change was noted in testosterone levels”. For the same molecule, the “weight of the testes, epididymis, prostate or seminal vesicles” value [6, 14] was “no significant change in the weight of the testes, epididymis, prostate or seminal vesicles”, the “impregnation of females in heat” value ([6]; treated orally, mated with females in heat) was “impregnated the females” and the “diffusion of zinc beyond epididymis and prostate” value [7] was “no diffusion beyond that”. For the same molecule, the “diffusion of zinc to the epididymis and prostate” value [7] was “some diffusion of the zinc to the epididymis and prostate”, the Testosterone ng/ml serum [8, 15] was 6.79 ± 1.34 ng/mL and the Epididymis weight [8, 15] was 0.90 ± 0.02 gm. The Prostate weight [8, 15] was 0.42 ± 0.04 gm, the “Seminal Vesicles weight” value [8, 15] was 0.72 ± 0.04 gm and the Testes weight [8, 15] was 2.94 ± 0.03 gm. For the same molecule, the Testosterone ng/ml serum [8, 16] was 6.87 ± 0.58 ng/mL, the Epididymis weight [8, 16] was 0.90 ± 0.02 gm and the Prostate weight [8, 16] was 0.46 ± 0.03 gm. For the same molecule, the “Seminal Vesicles weight” value [8, 16] was 0.74 ± 0.04 gm, the Testes weight [8, 16] was 3.05 ± 0.07 gm and the Testosterone ng/ml serum [8, 17] was 6.30 ± 0.68 ng/mL. The Epididymis weight [8, 17] was 0.88 ± 0.04 gm, the Prostate weight [8, 17] was 0.41 ± 0.02 gm and the “Seminal Vesicles weight” value [8, 17] was 0.89 ± 0.07 gm. For the same molecule, the Testes weight [8, 17] was 2.74 ± 0.13 gm, the “histological changes in the sex organs” value [8, 18] was “no histological changes were observed in the sex organs” and the testosterone level [8, 18] was “testosterone level was not changed”. The “weight of the testes, epididymis, prostate or seminal vesicles” value [8, 18] was “no significant reduction in the weight of the testes, epididymis, prostate or seminal vesicles”, the “impregnation of females in heat” value ([8]; treated intraperitoneally, mated with females in heat) was “impregnated the females” and the “BODY WEIGHT Final” value [3] was 910. The “% Fat” value [3] was 20.9%, the “% Protein” value [3] was 17.9% and the “Rate of Gain” value [3] was 1.54 lbs/day. For the same molecule, the “rate of gain vs surgically castrated animals” value [3] was “faster rate of gain than the surgically castrated animals”, the impregnation of females ([9]; rat, 5.0 mg ZnSO4.7H2 O in the vas deferens, mated with females in heat) was “did not impregnate the females” and the effect on spermatogenesis [9, 19] was “no effect on spermatogenesis”. For the same molecule, the “weight of the testes, prostate or seminal vesicles” value [9, 19] was “no significant change in the weight of the testes, prostate or seminal vesicles”, the “pregnancy of females mated” value ([9]; rat, 0.5 and 2.5 mg ZnSO4.7H2 O in the vas deferens, mated with females in heat) was “Pregnancy also occurred” and the “Epididymis weight” value [5] was 0.10 ± 0.03 gm. For the same molecule, the “Prostate weight” value [5] was 0.05 ± 0.02 gm, the “Seminal Vesicles Wt.” value [5] was 0.05 ± 0.02 gm and the “Testes weight” value [5] was 0.21 ± 0.04 gm. The testosterone level [10] was “decrease in the testosterone level”, the “pregnancy of females mated” value ([10]; mated with females in heat) was “No pregnancy resulted” and the “weight of the male reproductive organs” value ([10]; reduction increased with the dose) was “significant reduction in the weight of the male reproductive organs”. The Prostate weight [11, 20] was 0.82 ± 0.06 gm, the “Seminal Ves weight” value [11, 20] was 1.20 ± 0.02 gm and the Epididymis weight [11, 21] was 0.56 ± 0.06 gm. For the same molecule, the Testes weight [11, 21] was 1.42 ± 0.09 gm, the “weight of the prostate and seminal vesicles” value [11, 22] was “no difference, however, in the weight of the prostate and seminal vesicles” and the “weight of the testes and epididymis” value [11, 22] was “significant reduction in the weight of the testes and epididymis”. The “pregnancy of females mated” value ([11]; 25 mg into each side of the scrotum, mated with females in heat) was “No pregnancy resulted”, the testosterone levels ([11]; 25 mg into each side of the scrotum, vs control) was “no significant reduction in testosterone levels” and the “condition of the Leydig cells (histology of the testes)” value [11, 23] was “no difference in the condition of the Leydig cells”. The “condition of the sex cells (histology of the testes)” value [11, 23] was “significant change in the condition of the sex cells”.
